What was measured:
Assay type in all cases: in vivo
[1] = test system: Amaranthus retroflexus (AMARE); assay: B. Herbicidal post-emergence efficacy, AMARE
In short: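 Weeds grown in sandy loam in greenhouse and sprayed at the one-leaf stage, 2–3 weeks after sowing, with WP or EC formulations plus 0.5% additive at 600 L/ha water. Injury rated visually versus untreated controls after about 3 weeks (100% = dead, 0% = like control); rates up to 1280 g/ha.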

Veronica persica (VERPE) = assay: E. Herbicidal post-emergence efficacy, VERPE
In short: (§1)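 Greenhouse weeds were treated post-emergence at the one-leaf stage, 2-3 weeks after sowing in sandy loam, with WP or EC formulations sprayed as aqueous suspension/emulsion plus 0.5% additive at 600 l/ha, at 320 g/ha or less. Efficacy was rated visually after about 3 weeks versus untreated controls (100% = dead, 0% = like control).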

Kochia scoparia (KCHSC) = assay: E. Herbicidal post-emergence efficacy, KCHSC
In short: as §1

[2] = test system: Abutilon theophrasti (ABUTH); assay: E. Herbicidal post-emergence efficacy, ABUTH
In short: as §1

Lolium rigidum (LOLRI) = assay: A. Herbicidal pre-emergence efficacy, LOLRI
In short: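 Pre-emergence soil-surface spray in sandy loam pots, WP/EC in water plus 0.5% additive, 600 L/ha. Visual % damage rating after about 3 weeks in greenhouse vs. untreated; 0% = control-like, 100% = dead plants. Rates up to 1280 g/ha.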

[3] = test system: Triticum aestivum (TRZAS); assay: D. Pre-emergence effect on useful plants, TRZAS; conditions: useful plant
In short: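 Seeds sown in pots and covered with soil; WP or EC formulations sprayed on the soil surface as aqueous suspension/emulsion with 0.5% additive at 600 l/ha water. Plants grown in greenhouse; crop damage scored visually after about 3 weeks as % versus untreated controls (100% = dead, 0% = like control).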

Setaria viridis (SETVI) = assay: E. Herbicidal post-emergence efficacy, SETVI
In short: as §1

[4] = test system: Amaranthus retroflexus (AMARE); assay: E. Herbicidal post-emergence efficacy, AMARE
In short: as §1

[5] = test system: Digitaria sanguinalis (DIGSA); assay: C. Herbicidal pre-emergence efficacy, DIGSA; conditions: scored after about 3 weeks
In short: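 Pre-emergence test: formulated compounds sprayed as aqueous suspension or emulsion with 0.5% additive at 600 l/ha onto soil covering sown seeds, at rates corresponding to 320 g/ha or less. After about 3 weeks in greenhouse, efficacy scored visually as percent versus untreated controls (100% = plants dead).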

SMILES | Post-emergence efficacy against AMARE ([1]; 320 g/ha) [%] | Post-emergence efficacy against AMARE ([1]; 1280 g/ha) [%] | Post-emergence efficacy against VERPE in % (Veronica persica (VERPE); application rate 80 g/ha) [%] | Post-emergence efficacy against VERPE in % (Veronica persica (VERPE); application rate 320 g/ha) [%] | Post-emergence efficacy against KCHSC in % (Kochia scoparia (KCHSC); application rate 80 g/ha) [%] | Post-emergence efficacy against KCHSC in % (Kochia scoparia (KCHSC); application rate 320 g/ha) [%] | Post-emergence efficacy against ABUTH in % ([2]; application rate 80 g/ha) [%] | Post-emergence efficacy against ABUTH in % ([2]; application rate 320 g/ha) [%] | Pre-emergence efficacy against LOLRI (Lolium rigidum (LOLRI); dosage 320 g/ha) [%] | Pre-emergence efficacy against LOLRI (Lolium rigidum (LOLRI); dosage 1280 g/ha) [%] | Pre-emergence efficacy against TRZAS in % ([3]; application rate 80 g/ha) [%] | Post-emergence efficacy against SETVI in % (Setaria viridis (SETVI); application rate 80 g/ha) [%] | Post-emergence efficacy against SETVI in % (Setaria viridis (SETVI); application rate 320 g/ha) [%] | Post-emergence efficacy against AMARE in % ([4]; application rate 80 g/ha) [%] | Post-emergence efficacy against AMARE in % ([4]; application rate 320 g/ha) [%] | Pre-emergence efficacy against DIGSA ([5]; 80 g/ha) [%] | Pre-emergence efficacy against DIGSA ([5]; 320 g/ha) [%] | Post-emergence efficacy against AMARE ([1]; 80 g/ha) [%] | Pre-emergence efficacy against TRZAS in % ([3]; application rate 320 g/ha) [%]
O=S(=O)(CCCC(F)(F)F)Oc1c(F)cccc1Oc1ncc(Br)cn1 [Example I-41] | 90 | 90 | 100 | 100 | 100 | 100 | 90 | 100 | 100 | 100 | 20 | 100 | 100 | 100 | 100 | 100 | 100 | – | –
O=S(=O)(CCC(F)(F)F)Oc1c(Cl)cccc1Oc1ncc(Cl)cn1 [Example I-38] | – | 90 | 100 | 100 | 100 | 100 | – | 100 | – | 100 | 0 | 100 | 100 | 100 | 100 | 100 | 100 | – | –
O=S(=O)(CCCC(F)(F)C(F)(F)F)Oc1c(F)cccc1Oc1ncc(Cl)cn1 [Example I-68] | 100 | 100 | 100 | 100 | 80 | 90 | – | 90 | – | 100 | 0 | 100 | 100 | 90 | 100 | 100 | 100 | 100 | 10
O=S(=O)(CCC(F)(F)F)Oc1c(Cl)cccc1Oc1ncc(Br)cn1 [Example I-32] | 100 | 100 | 100 | 100 | 90 | 100 | 80 | 80 | – | 90 | 0 | 80 | 100 | 100 | 100 | – | 100 | 100 | 10
